Laboratory results as given in patent US6225478A, “Iridoid derivatives and neovascularization inhibitors containing the same as active ingredient” (Tsumura & Co., priority 1999, dated 2001).
Converted amounts (≈) assume the structure as drawn. Read-outs that look alike come from different tables or passages of the source.

Legend:
[1] = test system: human umbilical-vein endothelial cells (HUVEC); assay: Cell Proliferation Assay (CPA) Test, HUVEC, MTT; type: cell-based; details: Homo sapiens, M199 (2+) medium, read-out: CPA (IC50 μg/ml)
Experimental: (§1) Furthermore, the sample liquids of compounds used in the CPA and CMA tests were prepared in the manner described below. Firstly, after weighing out each compound, a calculated amount of DMSO was added. After dissolving the compound in the DMSO, phosphate buffered physiological saline (PBS (-)) was added to bring the sample concentration to 1 mg/ml in PBS (-). The amount of DMSO used to dissolve the compounds was adjusted in advance to that the concentration of DMSO at that time was 5%. The resulting liquids were diluted 10-fold with 5% DMSO-PBS (-) solution to prepare sample solutions having a concentration of 0.1 mg/ml. In the TFA test, 320 μl of the prepared 1 mg/ml sample solutions were removed followed by addition of 680 μl of PBS (-) to prepare samples having a concentration of […]. Moreover, 100 μl of this solution was removed followed by addition of 900 μl of PBS (-) to dilute 10-fold and prepare samples having a concentration of 1 μg/ml. P [Cell Proliferation Assay (CPA) Test]
100 μl of the 7th subculture obtained from first generation human umbilical-vein endothelial cells (HUVEC) were disseminated in the wells (N=3) of a 96-well plate (Iwaki, Cat. #4860-010) at a cell concentration of 5×10^4 cells/ml. M-199 medium containing +20% FCS, 10 ng/ml of b-FGF and 10 ng/ml of EGF (abbreviated as "M199 (2+)") was used for the medium.
After culturing for 24 hours at 37° C. in the presence of 5% CO2 under the above conditions, 20 μl/well of MTT solution (solution containing 5 mg/ml of PBS (-)) were added to the control well followed by accurately culturing for 4 hours at 37° C. in the presence of 5% CO2. Following completion of culturing, 100 μl/well of a stop solution (0.001 N aqueous HCl solution containing 10% SDS) were added. On the other hand, 10 μl/well of sample solutions at concentrations of 1 mg/ml and 0.1 mg/ml were added to the other wells.
After culturing for 24 hours at 37° C. in the presence of 5% CO2, the medium was replaced and 100 μl/well of M199 (2+) were added. The samples were also replaced in each well at this time.
Moreover, after additionally culturing for 48 hours at 37° C. in the presence of 5% CO2, 20 μl/well of MTT solution were added to the wells containing sample and the control well followed by accurately culturing for 4 hours at 37° C. and adding 100 μl/well of stop solution.

[2] = test system: human umbilical-vein endothelial cells (HUVEC); assay: Tube Formation Assay (TFA) Test, HUVEC in collagen gel; type: cell-based; details: Homo sapiens, HUVEC; for inhibition at 1 µg/mL / inhibition at 10 µg/mL: 20 h, read-out: TFA (inhibition rate, %); for inhibition at 320 µM (stock): Tables 75-83, 0.32 mM sample solution, method as for Compounds 1 through 60, read-out: TFA Inhibition rate (%)
Procedure, shortened: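 HUVEC (7th subculture, 1×10^5 cells/ml) attached to collagen gel for 2 h at 37 °C, given sample and overlaid with collagen, then cultured 20 h at 37 °C, 5% CO2 in M-199 with 20% FCS, 30 ng/ml b-FGF and 0.1 μM PMA. Tube length measured by image analysis; % inhibition relative to positive and negative controls.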

[3] = test system: human umbilical-vein endothelial cells (HUVEC); assay: Cell Migration Assay (CMA) Test, HUVEC (% relative to control); type: cell-based; details: Homo sapiens, HUVEC
Experimental: as §1
After disseminating the 7th subculture of HUVEC obtained from the first generation in the same manner as above at 4 ml/well (3.0×10^5 cells/well) in a collagen-coated 6-well plate (NUNC), the cells were cultured for 48 hours at 37° C. in the presence of 5% CO2. The cells reached nearly a completely confluent state as a result of this culturing.
A double-edged, disposable razor blade was divided into four sections, of which one of those sections was pinched between a pair of forceps. Using this piece of razor blade, the cell surface in the above confluent state was scraped off. Two areas of the cell surface were scraped off in each well.
After washing the surface of the wells from which the cells had been scraped off with medium, 4.0 ml of fresh M199 (2+) medium were added followed by addition of 40 μl or 4 μl of sample solution (1 mg/ml). The cells were cultured for 24 hours at 37° C. in the presence of 5% CO2. After discarding the culture liquid, the cells were fixed for 30 minutes with methanol. Next, after staining the cells for 4 hours with Giemsa stain, the plates were washed with tap water and air dried.
Measurement of cell migration was performed by microscopically counting the number of cells that had newly migrated within the range of a 1 mm×1 mm block. […] The total number of cells counted in blocks 1 through 5 were then totaled to determine the overall total number of cells. Four fields were counted for each well.
Evaluation was performed determining the cell migration (%) according to the following formula.
Cell migration rate=number of migrating cells to which sample was added×100/number of migrating of control (+)
Control (+) indicates the number of migrating cells in the control well containing M199 (2+).

[4] = test system: HUFEC; assay: Cell Migration Assay (CMA) Test, inhibitory rate with control (-) correction; type: cell-based, human; details: Homo sapiens, 24 h, 125 μl of 0.32 mM sample solution in 4.0 ml medium, 80% or more = remarkable
Procedure, shortened: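 Confluent HUFEC monolayers were scratch-wounded, then cultured 24 h at 37 °C, 5% CO2 in M199 (2+) medium with compound added as 125 μl of a 0.32 mM solution (3.2% DMSO) per 4 ml. Giemsa-stained cells migrating into 1 mm×1 mm blocks counted; inhibition % calculated relative to control (+) and control (−) wells.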

[5] = 1 μg/ml, 20 hours, 40% or less judged remarkable
[6] = 10 μg/ml, 20 hours, 40% or less judged remarkable
[7] = 1 μg/ml, 24 hours, 60% or less = remarkable inhibition, read-out: CMA (% relative to control)
[8] = 10 μg/ml, 24 hours, 60% or less = remarkable inhibition, read-out: CMA (% relative to control)

Row | SMILES | inhibition at 320 µM (stock) [4] [%] | inhibition at 320 µM (stock) [2] [%] | further results
1 | CNC(=O)OC[C@]12O[C@H]1C[C@@H]1C(C(=O)OC)=CO[C@@H](O)[C@@H]12 [Compound 60, (4aS,6S,7R,7aR)-6,7-epoxy-1-hydroxy-7-methylcarbamoyloxymethyl-1,4a,5,6,7a-pentahydro [c] pyrane-4-carboxylic acid methylester] | – | – | IC50 [1]: > 100 µg/mL; inhibition at 1 µg/mL [2, 5]: 32.7%; inhibition at 10 µg/mL [2, 6]: 41.5%; activity at 1 µg/mL [3, 7]: 87.1%; activity at 10 µg/mL [3, 8]: 96.3%
2 | CCCCCCNC(=O)O[C@@H]1OC=C(C(=O)OC)[C@H]2C[C@@H]3O[C@]3(C)[C@H]12 [compound 33, (1S,4aS,6S,7R,7aR)-6,7-epoxy-1-(n-hexylcarbamoyloxy)-1,4a,5,6,7,7a-hexahydro-7-methylcyclopenta [c] pyrane-4-carboxylic acid methylester] | – | – | IC50 [1]: > 100 µg/mL; activity at 1 µg/mL [3, 7]: 109%; activity at 10 µg/mL [3, 8]: 102%
3 | CNC(=O)O[C@@H]1OC=C(C(=O)O)[C@H]2C[C@@H]3O[C@]3(C)[C@H]12 [compound 2, sodium (1S,4aS,6S,7R,7aR)-6,7-epoxy-1,4a,5,6,7,7a-hexahydro-7-methyl-1-(methylcarbamoyloxy) cyclopenta [c]-pyrane-4-carboxylic acid] | – | – | inhibition at 1 µg/mL [2]: 69.1%; inhibition at 10 µg/mL [2]: 56.9%; activity at 1 µg/mL ([3]; 24 h, read-out: CMA (% relative to control), 1 μg/ml, 60% or less = remarkable inhibition): 88.4%; activity at 10 µg/mL ([3]; 24 h, read-out: CMA (% relative to control), 10 μg/ml, 60% or less = remarkable inhibition): 95.8%
4 | CN(C)c1ccc(O)c2c1C[C@H]1C[C@H]3[C@H](N(C)C)C(O)=C(C(N)=O)C(=O)[C@@]3(O)C(O)=C1C2=O [Minocycline, reference compound] | – | – | inhibition at 1 µg/mL [2, 5]: 42.1%; inhibition at 10 µg/mL [2, 6]: 56.7%; activity at 1 µg/mL [3, 7]: 67.3%; activity at 10 µg/mL [3, 8]: 51.6%
5 | CO[C@@H]1[C@H](OC(=O)/C=C/C=C/C=C/C=C/C(=O)O)CC[C@]2(CO2)[C@H]1[C@@]1(C)O[C@@H]1CC=C(C)C [Fumagilline, reference compound] | – | – | IC50 [1]: 33.3 µg/mL (≈ 72.6 µM); activity at 1 µg/mL [3, 7]: 95.5%; activity at 10 µg/mL [3, 8]: 74.2%
6 | CNC(=O)O[C@@H]1OC=C(C(=O)NCCS)[C@H]2C[C@@H]3O[C@]3(C)[C@@H]12 [I-64] | 9.4 | 5.2 | –
7 | COC(=O)C1=CO[C@@H](OC(=O)N(C)Cc2ccccc2)[C@H]2[C@@H]1CC[C@@H]2C [I-184] | 37.1 | 7.4 | –
8 | COC(=O)C1=COC[C@@H]2C(C(=O)N3CCN(CCO)CC3)=CC[C@H]12 [I-293] | 69.3 | 11.2 | –
9 | COC(=O)C1=CO[C@@H](OC(=O)NC(=O)CCl)[C@@H]2C(C)=CC[C@H]12 [I-152] | 33.7 | 51 | –
10 | COC(=O)C1=CO[C@@H](OC(=O)NCCCc2ccccc2)[C@@H]2C(C)=CC[C@H]12 [I-112] | 6.8 | 7.9 | –
11 | CCOC(=O)C1=COC(OC(=O)NC)C2C1CC1OC12CO (centres unmarked) [I-279] | 45.1 | 13.2 | –
12 | COC(=O)C1=CO[C@@H](OC(=O)N(C)CCc2ccc(OC)c(OC)c2)[C@H]2[C@@H]1CC[C@@H]2C [I-227] | 17.2 | 7.4 | –
13 | COC(=O)C1=CO[C@@H](OC(=O)NCC2CCCO2)[C@H]2[C@@H]1CC[C@@H]2C (some centres unmarked) [I-181] | 2.3 | 3.2 | –
14 | C=CCN(CC=C)C(=O)O[C@@H]1OC=C(C(=O)OC)[C@H]2CC[C@H](C)[C@@H]12 [I-230] | 28.7 | 6.4 | –
15 | COC(=O)C1=CO[C@@H](OC(=O)NCCN(C)C)[C@@H]2C(C)=CC[C@H]12 [I-117] | 28.1 | 26.8 | –
16 | CCOc1ccccc1N1CCN(C(=O)O[C@@H]2OC=C(C(=O)OC)[C@H]3CC[C@H](C)[C@@H]23)CC1 [I-243] | 6.7 | 8.1 | –
17 | COC(=O)C1=CO[C@@H](OC(=O)NCCCN(C)C)[C@@H]2C(C)=CC[C@H]12 [I-105] | 14.9 | 5.6 | –
18 | COC(=O)C1=CO[C@@H](OC(=O)Nc2ccc(Cl)cc2C(F)(F)F)[C@@H]2C(C)=CC[C@H]12 [I-164] | 5.9 | 2.5 | –
19 | COC(=O)C1=CO[C@@H](OC(=O)NCC2CC2)[C@H]2[C@@H]1CC[C@@H]2C [I-241] | 12.6 | 5.1 | –
20 | CCNC(=O)O[C@@H]1OC=C(C(=O)OC)[C@H]2CC[C@H](C)[C@@H]12 [I-262] | 6.3 | 8.8 | –
21 | COC(=O)C1=CO[C@@H](OC(=O)Nc2ccc(Br)cc2)[C@@H]2C(C)=CC[C@H]12 [I-159] | 39.5 | 9.8 | –
22 | COC(=O)C1=CO[C@@H](OC(=O)NCC2CCCO2)[C@@H]2C(C)=CC[C@H]12 (some centres unmarked) [I-78] | 23.4 | 5.1 | –
23 | CCN(CCO)C(=O)O[C@@H]1OC=C(C(=O)OC)[C@H]2CC=C(C)[C@@H]12 [I-97] | 7.7 | 29.1 | –
24 | CCCN(C)C(=O)O[C@@H]1OC=C(C(=O)OC)[C@H]2CC=C(C)[C@@H]12 [I-90] | 4.3 | 22.8 | –
25 | COC(=O)C1=CO[C@@H](OC(=O)NCc2cccc(F)c2)[C@@H]2C(C)=CC[C@H]12 [I-127] | 5.3 | 5.3 | –
26 | CNC(=O)O[C@@H]1OC=C(C(=O)OC)[C@H]2CC=C(CO)C12 (stereo in doubt) [I-315, (1S,4aS,7aR)-7-(hydroxy-methyl)-1-(methylcarbamoyloxy)-1,4a,5,7a-tetrahydrocyclopenta [c] pyrane-4-carboxylic acid methylester] | 36.4 | 8.6 | –
27 | COC(=O)C1=CO[C@@H](OC(=O)N(CCO)CCO)[C@H]2[C@@H]1CC[C@@H]2C [I-240] | 8.5 | 7.4 | –
28 | CCN(CCO)C(=O)O[C@@H]1OC=C(C(=O)OC)[C@H]2CC[C@H](C)[C@@H]12 [I-203] | 5.9 | 15.8 | –
